Assay results from patent US20220211038A1, “COMPOSITION AND METHOD FOR PROTECTING PLANT AGAINST DISEASE AND PEST” (SUMITOMO CHEMICAL COMPANY, LIMITED, priority 2019, published 2022).

Legend:
[1] = tested on: Septoria leaf blotch (Mycosphaerella graminicola); assay: Growth inhibition of Septoria leaf blotch in YBG medium, microtiter plate, absorbance at 600 nm (Test Example 1); type: cell-based; settings: 18° C., four days
Procedure: Fluopyram and fluxapyroxad were respectively dissolved in dimethyl sulfoxide, and agent solutions were prepared so that the concentration of each compound was 100 times the concentration described in Table 1. The agent solution was dispensed into each well of a microtiter plate (96 wells) in 1 μl portion, and then 99 μL of YBG medium to which conidia of Septoria leaf blotch (Mycosphaerella graminicola) was inoculated in advance (which was prepared by dissolving 10 g of yeast extract, 10 g of Bacto Peptone, and 20 mL of glycerol into 1 L of water, followed by sterilizing the medium) was dispensed into each of the well to which the agent solution was dispensed. The plate was cultivated at 18° C. for four days, thereby allowing Septoria leaf blotch to undergo proliferation, and the absorbance at 600 nm of a sample in each well of the microtiter plate was then measured to examine a degree of growth of Septoria leaf blotch (hereinafter referred to as “treated group”). Whereas, Septoria leaf blotch was grown similarly to the case of the treated group using dimethyl sulfoxide instead of the agent solution, and the degree of growth was measured (hereinafter referred to as “untreated group”). The efficacy was calculated from each of the obtained degree of growth of the treated group and the untreated group respectively by the following “Equation 1”.
Efficacy (%)=100×(X−Y)/X Equation 1
X: Degree of growth of fungus in the untreated group
Y: Degree of growth of fungus in the treated group

[2] = tested on: powdery mildew (Sphaerotheca fuliginea); assay: Cucumber powdery mildew control, spray on plantlets (Test Example 2); type: in vivo; settings: 10 days
Source text: Fluopyram and fluxapyroxad were respectively mixed with surfactant and crushed in a grinding equipment to obtain a crushed composition. The crushed composition was then mixed with tap water so as to have the compound at the concentration described in Table 2 to obtain spray liquid. The spray liquid was sprayed onto cucumber (Cultivar: Hanjiro Fushinari) plantlet at run-off water volume. Plantlets were then air dried before artificially inoculated by putting the test plantlets in the same room where cucumber with powdery mildew (Sphaerotheca fuliginea) symptoms were grown. The plantlet were grown in the room for 10 days and the degree of disease severity on leaves was measured (hereinafter referred to as “treated group”).
The same operation was carried out […] (hereinafter referred to as “untreated group”).
The controlling value was calculated from each of the obtained degree of disease severity on leaves of the treated group and the untreated group respectively by the following “Equation 2”.
Controlling value (%)=100×(X−Y)/X Equation 2
X: Degree of disease severity on leaves in the untreated group
Y: Degree of disease severity on leaves in the treated group

Structure (SMILES) | Efficacy (%) ([1]; Fluopyram 0.1 ppm alone) | Efficacy (%) ([1]; Fluopyram 1.75 ppm alone) | Controlling value (%) ([2]; Fluopyram 0.4 mg/L alone) | Controlling value (%) ([2]; Fluopyram 4.0 mg/L alone) | Efficacy (%) ([1]; Fluxapyroxad 0.18 ppm alone) | Efficacy (%) ([1]; Fluxapyroxad 0.5 ppm alone) | Controlling value (%) ([2]; Fluxapyroxad 0.4 mg/L alone) | Controlling value (%) ([2]; Fluxapyroxad 2.0 mg/L alone)
O=C(NCCc1ncc(C(F)(F)F)cc1Cl)c1ccccc1C(F)(F)F [Fluopyram] | 24 | 60 | 32 | 50 |  |  |  | 
Cn1cc(C(=O)Nc2ccccc2-c2cc(F)c(F)c(F)c2)c(C(F)F)n1 [Fluxapyroxad] |  |  |  |  | 71 | 82 | 16 | 34
